# Measured values taken from patent publication US20260151486A1, “PRESSURIZED NANOEMULSION” (BIOFRONTERA BIOSCIENCE GMBH, priority 2023, published 2026).
# Experiments:
# [1] = ALA content over storage time in nanoemulsion formulation; type: physicochemical; settings: in BF200 with PX=2%, 3% 5-ALA; after 36 months storage at 2-25° C.
# Description: Nanoemulsion formulations BF200 PX=2% glass and BF200 PX=2% foam were prepared as described in Example 5. The nanoemulsion formulations were stored at 25° C. and 2-8° C. The content of ALA was determined at 0 (starting point) and various time points during the 36 months storage period.
# [2] = room temperature; cited from earlier work
# [3] = TC content over storage time in nanoemulsion formulation; type: physicochemical; settings: in BF220 with PX=4%, 0.1% TC
# Description: Nanoemulsion formulations BF220 TC=0.1% glass and BF220 TC=0.1% foam were prepared as described in Example 6. The nanoemulsion formulations were stored at 2-8° C. and 25° C. The content of TC was determined at 0 (starting point) and various time points up to 48 months storage period.
ALA content [1],TC content ([3]; after 6 months at 25° C.),TC content ([3]; after 48 months storage at 2-8° C.),SMILES,stability in aqueous formulations [2]
at least 90%,–,–,"NCC(=O)CCC(=O)O [ALA, 5-aminolevulinic acid]",–
–,at least 95%,at least 95%,"C=CC[C@@H]1/C=C(\C)C[C@H](C)C[C@H](OC)[C@H]2O[C@@](O)(C(=O)C(=O)N3CCCC[C@H]3C(=O)O[C@H](/C(C)=C/[C@@H]3CC[C@@H](O)[C@H](OC)C3)[C@H](C)[C@@H](O)CC1=O)[C@H](C)C[C@@H]2OC [TC, Tacrolimus]",approx. 90 days
